Source: PubChem BioAssay (NCI)
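Method: 48-hour compound exposure of cells in 96-well plates, five concentrations, linear interpolation of endpoints. TGI marks complete inhibition of growth.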

Tests used:
Test in all cases: DTP human tumour cell line panel, 48 h
[1] = tested on: SF-295 CNS
[2] = tested on: DU-145 prostate
[3] = tested on: SW-620 colon
[4] = tested on: UO-31 renal
[5] = tested on: T-47D breast
[6] = tested on: SK-MEL-5 melanoma
[7] = tested on: MDA-MB-435
[8] = tested on: MCF7 breast
[9] = tested on: UACC-257 melanoma
[10] = tested on: MOLT-4 leukemia
[11] = tested on: OVCAR-5 ovarian
[12] = tested on: OVCAR-3 ovarian
[13] = tested on: RPMI-8226 leukemia
[14] = tested on: NCI-H460 lung
[15] = tested on: SK-MEL-2 melanoma
[16] = tested on: NCI-H226 lung
[17] = tested on: HOP-92 NSCLC
[18] = tested on: MDA-N
[19] = tested on: SK-OV-3 ovarian
[20] = tested on: HT29 colon
[21] = tested on: SF-539 CNS
[22] = tested on: SF-268 CNS
[23] = tested on: ACHN renal
[24] = tested on: KM12 colon
[25] = tested on: HCC-2998 colon
[26] = tested on: NCI-H23 lung
[27] = tested on: CCRF-CEM leukemia
[28] = tested on: HCT-116 colon
[29] = tested on: K-562 leukemia
[30] = tested on: HS 578T breast
[31] = tested on: EKVX NSCLC
[32] = tested on: RXF 393 renal
[33] = tested on: IGROV1 ovarian
[34] = tested on: U251 CNS
[35] = tested on: UACC-62 melanoma
[36] = tested on: SNB-19 CNS
[37] = tested on: OVCAR-8 ovarian
[38] = tested on: MDA-MB-231 breast
[39] = tested on: SK-MEL-28 melanoma
[40] = tested on: COLO 205 colon
[41] = tested on: TK-10 renal
[42] = tested on: HOP-62 NSCLC
[43] = tested on: SN12C renal
[44] = tested on: CAKI-1 renal
[45] = tested on: LOX IMVI melanoma
[46] = tested on: PC-3 prostate
[47] = tested on: SNB-75 CNS
[48] = tested on: M14 melanoma
[49] = tested on: BT-549 breast
[50] = tested on: NCI/ADR-RES ovarian
[51] = tested on: OVCAR-4 ovarian
[52] = tested on: A549 NSCLC
[53] = tested on: 786-0 renal
[54] = tested on: HCT-15 colon
[55] = tested on: A498 renal
[56] = tested on: SR leukemia
[57] = tested on: NCI-H522 lung
[58] = tested on: HL-60(TB) leukemia
[59] = tested on: MALME-3M melanoma

## CCc1cc(=O)n(/C(C)=C/c2ccccc2)n1C
[1]
  TGI: > 100 µM
[2]
  TGI: > 100 µM
[3]
  TGI: > 100 µM
[4]
  TGI: > 100 µM
[5]
  TGI: > 100 µM
[6]
  TGI: > 100 µM
[7]
  TGI: > 100 µM
[8]
  TGI: > 100 µM
[9]
  TGI: > 100 µM
[10]
  TGI: > 100 µM
[11]
  TGI: > 100 µM
[12]
  TGI: > 100 µM
[13]
  TGI: > 100 µM
[14]
  TGI: > 100 µM
[15]
  TGI: > 100 µM
[16]
  TGI: > 100 µM
[17]
  TGI: > 100 µM
[18]
  TGI: > 100 µM
[19]
  TGI: > 100 µM
[20]
  TGI: > 100 µM
[21]
  TGI: > 100 µM
[22]
  TGI: > 100 µM
[23]
  TGI: > 100 µM
[24]
  TGI: > 100 µM
[25]
  TGI: > 100 µM
[26]
  TGI: > 100 µM
[27]
  TGI: > 100 µM
[28]
  TGI: > 100 µM
[29]
  TGI: > 100 µM
[30]
  TGI: > 100 µM
[31]
  TGI: > 100 µM
[32]
  TGI: > 100 µM
[33]
  TGI: > 100 µM
[34]
  TGI: > 100 µM
[35]
  TGI: > 100 µM
[36]
  TGI: > 100 µM
[37]
  TGI: > 100 µM
[38]
  TGI: > 100 µM
[39]
  TGI: > 100 µM
[40]
  TGI: > 100 µM
[41]
  TGI: > 100 µM
[42]
  TGI: > 100 µM
[43]
  TGI: > 100 µM
[44]
  TGI: > 100 µM
[45]
  TGI: > 100 µM
[46]
  TGI: > 100 µM
[47]
  TGI: > 100 µM
[48]
  TGI: > 100 µM
[49]
  TGI: > 100 µM
[50]
  TGI: > 100 µM
[51]
  TGI: > 100 µM
[52]
  TGI: > 100 µM

## CC1=NC(C)(C)N(O)C1(C)C
[1]
  TGI: > 100 µM
[2]
  TGI: > 100 µM
[3]
  TGI: > 100 µM
[53]
  TGI: > 100 µM
[4]
  TGI: > 100 µM
[5]
  TGI: > 100 µM
[6]
  TGI: > 100 µM
[7]
  TGI: > 100 µM
[8]
  TGI: > 100 µM
[10]
  TGI: > 100 µM
[11]
  TGI: > 100 µM
[12]
  TGI: > 100 µM
[13]
  TGI: > 100 µM
[14]
  TGI: > 100 µM
[15]
  TGI: > 100 µM
[54]
  TGI: > 100 µM
[16]
  TGI: > 100 µM
[17]
  TGI: > 100 µM
[18]
  TGI: > 100 µM
[19]
  TGI: > 100 µM
[20]
  TGI: > 100 µM
[21]
  TGI: > 100 µM
[22]
  TGI: > 100 µM
[23]
  TGI: > 100 µM
[24]
  TGI: > 100 µM
[25]
  TGI: > 100 µM
[26]
  TGI: > 100 µM
[55]
  TGI: > 100 µM
[56]
  TGI: > 100 µM
[27]
  TGI: > 100 µM
[57]
  TGI: > 100 µM
[28]
  TGI: > 100 µM
[29]
  TGI: > 100 µM
[58]
  TGI: > 100 µM
[31]
  TGI: > 100 µM
[32]
  TGI: > 100 µM
[33]
  TGI: > 100 µM
[34]
  TGI: > 100 µM
[35]
  TGI: > 100 µM
[36]
  TGI: > 100 µM
[37]
  TGI: > 100 µM
[38]
  TGI: > 100 µM
[39]
  TGI: > 100 µM
[40]
  TGI: > 100 µM
[41]
  TGI: > 100 µM
[42]
  TGI: > 100 µM
[43]
  TGI: > 100 µM
[45]
  TGI: > 100 µM
[46]
  TGI: > 100 µM
[47]
  TGI: > 100 µM
[48]
  TGI: > 100 µM
[50]
  TGI: > 100 µM
[59]
  TGI: > 100 µM
[51]
  TGI: > 100 µM
[52]
  TGI: > 100 µM

## O=C1NN=C(c2c[nH]c3ccccc23)CC1NCc1ccccc1 (configuration not stated)
[1]
  TGI: > 100 µM
[2]
  TGI: > 100 µM
[3]
  TGI: > 100 µM
[53]
  TGI: > 100 µM
[4]
  TGI: > 100 µM
[5]
  TGI: > 100 µM
[6]
  TGI: > 100 µM
[7]
  TGI: > 100 µM
[9]
  TGI: > 100 µM
[10]
  TGI: > 100 µM
[11]
  TGI: > 100 µM
[12]
  TGI: > 100 µM
[13]
  TGI: > 100 µM
[14]
  TGI: > 100 µM
[15]
  TGI: > 100 µM
[54]
  TGI: > 100 µM
[16]
  TGI: > 100 µM
[17]
  TGI: > 100 µM
[18]
  TGI: > 100 µM
[19]
  TGI: > 100 µM
[20]
  TGI: > 100 µM
[21]
  TGI: > 100 µM
[22]
  TGI: > 100 µM
[23]
  TGI: > 100 µM
[24]
  TGI: > 100 µM
[26]
  TGI: > 100 µM
[55]
  TGI: > 100 µM
[27]
  TGI: > 100 µM
[57]
  TGI: > 100 µM
[28]
  TGI: > 100 µM
[29]
  TGI: > 100 µM
[30]
  TGI: > 100 µM
[58]
  TGI: > 100 µM
[32]
  TGI: > 100 µM
[33]
  TGI: > 100 µM
[34]
  TGI: > 100 µM
[35]
  TGI: > 100 µM
[36]
  TGI: > 100 µM
[37]
  TGI: > 100 µM
[38]
  TGI: > 100 µM
[39]
  TGI: > 100 µM
[40]
  TGI: > 100 µM
[41]
  TGI: > 100 µM
[42]
  TGI: > 100 µM
[43]
  TGI: > 100 µM
[44]
  TGI: > 100 µM
[45]
  TGI: > 100 µM
[46]
  TGI: > 100 µM
[47]
  TGI: > 100 µM
[48]
  TGI: > 100 µM
[49]
  TGI: > 100 µM
[50]
  TGI: > 100 µM
[59]
  TGI: > 100 µM
[52]
  TGI: > 100 µM

## COc1ccc(/C(C)=N/NC(=S)N(C)C)c(O)c1
[1]
  TGI: > 100 µM
[2]
  TGI: > 100 µM
[3]
  TGI: > 100 µM
[4]
  TGI: 36 µM
[5]
  TGI: > 100 µM
[6]
  TGI: > 100 µM
[7]
  TGI: > 100 µM
[9]
  TGI: 77.7 µM
[10]
  TGI: > 100 µM
[11]
  TGI: > 100 µM
[12]
  TGI: > 100 µM
[13]
  TGI: > 100 µM
[14]
  TGI: > 100 µM
[15]
  TGI: > 100 µM
[17]
  TGI: 98.8 µM
[18]
  TGI: > 100 µM
[19]
  TGI: > 100 µM
[20]
  TGI: > 100 µM
[22]
  TGI: > 100 µM
[23]
  TGI: > 100 µM
[24]
  TGI: > 100 µM
[25]
  TGI: > 100 µM
[26]
  TGI: 72.9 µM
[56]
  TGI: > 100 µM
[27]
  TGI: 87.9 µM
[57]
  TGI: > 100 µM
[28]
  TGI: > 100 µM
[30]
  TGI: > 100 µM
[31]
  TGI: > 100 µM
[33]
  TGI: 23.2 µM
[34]
  TGI: > 100 µM
[35]
  TGI: 20.1 µM
[36]
  TGI: > 100 µM
[38]
  TGI: > 100 µM
[39]
  TGI: > 100 µM
[40]
  TGI: 12.4 µM
[42]
  TGI: > 100 µM
[43]
  TGI: > 100 µM
[44]
  TGI: 96.6 µM
[45]
  TGI: 12.4 µM
[46]
  TGI: > 100 µM
[47]
  TGI: > 100 µM
[48]
  TGI: > 100 µM
[49]
  TGI: 66.6 µM
[51]
  TGI: 9.48 µM
[52]
  TGI: > 100 µM
